Test results reported in ChEMBL document CHEMBL1201862, “PubChem BioAssay data set” (2004).
Calls of active or inactive are those of the source.

Legend:
[1] = growth suppression of beta-catenin-knockout colon cells, dose response, cell-based, HCT116, human colon tumor (AID 1045); assay type: functional;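 note: HCT116 colon tumor cells with beta catenin knocked out; cells exposed to compound for 60 hours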
[2] = growth suppression of PTEN-null colon cells, dose response, cell-based, HCT116 PTEN knockout (AID 1047); assay type: functional;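 note: HCT116 colon tumor cells with PTEN knocked out; cells exposed to compound for 60 hours before readout; potency for loss of cell viability measured by luminescence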
Escherichia coli = experiment: microbe, parasite or virus in culture
[3] = biological target: T1, Replicative DNA helicase DnaB (Mycobacterium tuberculosis, UniProt P9WMR3); experiment: DnaB intein splicing inhibitors, dose response, biochemical, cell-free fluorescence (AID 449749); assay type: functional
T1 sequence (P9WMR3 whole entry): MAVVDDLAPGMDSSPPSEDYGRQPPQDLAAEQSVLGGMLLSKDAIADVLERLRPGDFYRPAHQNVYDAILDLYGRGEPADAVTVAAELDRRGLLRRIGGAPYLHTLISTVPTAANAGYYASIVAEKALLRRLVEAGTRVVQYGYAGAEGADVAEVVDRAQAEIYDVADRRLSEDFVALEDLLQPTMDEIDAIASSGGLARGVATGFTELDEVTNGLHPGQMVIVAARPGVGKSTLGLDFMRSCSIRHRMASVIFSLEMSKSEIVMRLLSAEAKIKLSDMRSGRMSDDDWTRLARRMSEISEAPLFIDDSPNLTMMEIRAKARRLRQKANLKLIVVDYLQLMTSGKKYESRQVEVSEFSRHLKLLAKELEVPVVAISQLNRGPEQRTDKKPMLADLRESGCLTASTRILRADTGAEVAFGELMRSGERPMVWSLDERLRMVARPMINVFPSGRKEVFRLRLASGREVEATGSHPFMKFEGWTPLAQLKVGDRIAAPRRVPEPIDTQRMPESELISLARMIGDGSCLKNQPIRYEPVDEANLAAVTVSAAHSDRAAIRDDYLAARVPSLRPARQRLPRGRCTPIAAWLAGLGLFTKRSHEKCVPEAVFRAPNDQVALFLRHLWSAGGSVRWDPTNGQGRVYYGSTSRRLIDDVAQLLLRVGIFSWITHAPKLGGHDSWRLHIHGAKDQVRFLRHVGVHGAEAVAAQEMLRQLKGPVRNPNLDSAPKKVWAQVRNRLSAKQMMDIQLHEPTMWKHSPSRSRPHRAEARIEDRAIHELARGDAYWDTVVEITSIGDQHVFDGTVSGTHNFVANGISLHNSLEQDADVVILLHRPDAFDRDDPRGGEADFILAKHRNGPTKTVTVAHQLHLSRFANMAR

Protein RecA = biological target: T2, Protein RecA (Mycobacterium tuberculosis, UniProt P9WHJ3); experiment: Fluorescence Cell-Free Homogeneous Dose Retest to Identify Inhibitors of RecA-Intein Splicing Activity. [Related pubchem assays (depositor defined):AID2097, AID2223, AID489010, AID492950]; assay type: functional
T2 sequence (P9WHJ3 whole entry): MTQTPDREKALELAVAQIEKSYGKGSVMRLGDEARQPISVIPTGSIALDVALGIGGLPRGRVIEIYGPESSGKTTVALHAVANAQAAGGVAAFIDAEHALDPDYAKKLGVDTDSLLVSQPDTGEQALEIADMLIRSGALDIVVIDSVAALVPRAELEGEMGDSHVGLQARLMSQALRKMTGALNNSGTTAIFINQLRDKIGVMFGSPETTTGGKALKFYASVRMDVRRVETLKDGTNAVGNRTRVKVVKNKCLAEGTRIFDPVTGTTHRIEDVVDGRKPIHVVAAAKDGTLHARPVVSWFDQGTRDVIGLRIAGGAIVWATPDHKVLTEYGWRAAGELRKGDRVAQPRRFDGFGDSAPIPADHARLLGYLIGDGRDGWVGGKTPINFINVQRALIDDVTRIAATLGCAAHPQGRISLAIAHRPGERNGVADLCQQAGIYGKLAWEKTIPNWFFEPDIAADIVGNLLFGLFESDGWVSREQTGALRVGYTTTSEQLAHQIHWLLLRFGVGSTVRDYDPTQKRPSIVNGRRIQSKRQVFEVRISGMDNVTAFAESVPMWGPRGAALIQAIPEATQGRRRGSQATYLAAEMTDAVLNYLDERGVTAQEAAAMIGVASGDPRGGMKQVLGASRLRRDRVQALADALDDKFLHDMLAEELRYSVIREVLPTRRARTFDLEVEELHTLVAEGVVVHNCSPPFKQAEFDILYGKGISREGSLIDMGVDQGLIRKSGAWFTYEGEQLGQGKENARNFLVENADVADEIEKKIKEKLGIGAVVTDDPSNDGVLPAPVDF

[4] = biological target: Glucose-6-phosphate 1-dehydrogenase (Homo sapiens, UniProt P11413); experiment: human G6PD enzyme inhibitors, dose response, selectivity assay for P. falciparum G6PD inhibitor project, biochemical, fluorescence (AID 504792); assay type: functional
[5] = biological target: T3, Corticotropin-releasing factor receptor 2/Corticotropin-releasing factor-binding protein (Homo sapiens, UniProt P24387+Q13324); experiment: Dose Response confirmation of uHTS hits for small molecule antagonists of the CRF-binding protein and CRF-R2 receptor complex.; assay type: functional; conditions: read-out: IC50_Mean
T3 sequence (Q13324 whole entry): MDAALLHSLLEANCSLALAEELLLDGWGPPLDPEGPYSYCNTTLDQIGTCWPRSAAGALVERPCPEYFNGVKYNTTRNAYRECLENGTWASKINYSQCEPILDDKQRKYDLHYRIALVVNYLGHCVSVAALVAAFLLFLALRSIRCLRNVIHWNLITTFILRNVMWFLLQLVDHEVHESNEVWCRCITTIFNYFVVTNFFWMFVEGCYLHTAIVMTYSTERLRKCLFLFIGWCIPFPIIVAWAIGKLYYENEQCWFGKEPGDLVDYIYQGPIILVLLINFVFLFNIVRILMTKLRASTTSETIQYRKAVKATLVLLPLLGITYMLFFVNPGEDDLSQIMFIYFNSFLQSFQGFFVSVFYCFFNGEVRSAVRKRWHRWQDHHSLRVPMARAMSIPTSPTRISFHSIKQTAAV
T3 sequence (P24387 whole entry): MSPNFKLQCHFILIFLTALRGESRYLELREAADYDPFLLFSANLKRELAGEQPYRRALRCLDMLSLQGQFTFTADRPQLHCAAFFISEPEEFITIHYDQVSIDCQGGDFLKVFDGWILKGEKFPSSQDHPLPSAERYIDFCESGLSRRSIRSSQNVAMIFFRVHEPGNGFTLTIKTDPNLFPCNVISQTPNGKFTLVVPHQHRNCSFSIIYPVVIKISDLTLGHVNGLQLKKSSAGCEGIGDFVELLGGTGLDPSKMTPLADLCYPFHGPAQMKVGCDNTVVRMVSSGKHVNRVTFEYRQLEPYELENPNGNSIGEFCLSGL

Cytochrome P450 2C19 = Cytochrome P450 2C19 (Homo sapiens, UniProt P33261); experiment: Cytochrome panel assay with activity outcomes. Panel member name: p450-cyp2c19 Compounds with AC50 equal or less than 10 uM are considered active; assay type: functional; conditions: read-out: AC50
Cytochrome P450 2C9 = Cytochrome P450 2C9 (Homo sapiens, UniProt P11712)
Cytochrome P450 3A4 = Cytochrome P450 3A4 (Homo sapiens, UniProt P08684);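 note: CYP3A4 tested as one member of a cytochrome P450 panel screen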
[6] = biological target: T3, Corticotropin-releasing factor receptor 2/Corticotropin-releasing factor-binding protein; experiment: activators of CRF receptor 2 with binding protein – uHTS hits, confirmation (AID 602473); assay type: functional; conditions: read-out: EC50_Mean
Cytochrome P450 2D6 = Cytochrome P450 2D6 (Homo sapiens, UniProt P10635);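 note: CYP2D6 member of a cytochrome P450 panel assay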
Cytochrome P450 2D6, sequence (P10635 whole entry): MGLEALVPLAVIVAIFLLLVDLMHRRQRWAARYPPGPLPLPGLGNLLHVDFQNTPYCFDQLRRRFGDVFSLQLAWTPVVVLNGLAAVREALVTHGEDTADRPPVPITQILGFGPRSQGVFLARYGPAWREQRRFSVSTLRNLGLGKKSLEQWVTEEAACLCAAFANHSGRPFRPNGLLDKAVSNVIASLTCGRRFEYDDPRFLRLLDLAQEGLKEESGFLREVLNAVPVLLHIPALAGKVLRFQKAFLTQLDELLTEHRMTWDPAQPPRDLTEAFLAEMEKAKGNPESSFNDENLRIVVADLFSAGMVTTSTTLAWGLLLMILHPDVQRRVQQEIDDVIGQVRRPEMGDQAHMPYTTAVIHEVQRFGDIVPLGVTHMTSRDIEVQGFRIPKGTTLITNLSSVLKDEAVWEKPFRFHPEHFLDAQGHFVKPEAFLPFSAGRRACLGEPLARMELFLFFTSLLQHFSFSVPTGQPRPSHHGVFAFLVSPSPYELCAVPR

Cytochrome P450 2C9, sequence (P11712 whole entry): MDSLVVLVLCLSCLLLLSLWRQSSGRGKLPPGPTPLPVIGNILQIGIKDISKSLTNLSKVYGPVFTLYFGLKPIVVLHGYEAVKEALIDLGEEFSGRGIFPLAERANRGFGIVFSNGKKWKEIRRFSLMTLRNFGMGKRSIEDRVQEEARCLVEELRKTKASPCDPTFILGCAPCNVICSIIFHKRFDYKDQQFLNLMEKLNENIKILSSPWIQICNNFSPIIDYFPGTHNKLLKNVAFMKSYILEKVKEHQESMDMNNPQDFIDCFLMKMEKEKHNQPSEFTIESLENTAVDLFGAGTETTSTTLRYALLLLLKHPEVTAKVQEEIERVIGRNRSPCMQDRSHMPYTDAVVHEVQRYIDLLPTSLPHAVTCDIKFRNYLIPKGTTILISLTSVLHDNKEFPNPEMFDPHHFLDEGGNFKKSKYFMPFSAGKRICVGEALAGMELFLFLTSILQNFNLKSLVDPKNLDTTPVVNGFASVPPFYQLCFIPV
Cytochrome P450 2C19, sequence (P33261 whole entry): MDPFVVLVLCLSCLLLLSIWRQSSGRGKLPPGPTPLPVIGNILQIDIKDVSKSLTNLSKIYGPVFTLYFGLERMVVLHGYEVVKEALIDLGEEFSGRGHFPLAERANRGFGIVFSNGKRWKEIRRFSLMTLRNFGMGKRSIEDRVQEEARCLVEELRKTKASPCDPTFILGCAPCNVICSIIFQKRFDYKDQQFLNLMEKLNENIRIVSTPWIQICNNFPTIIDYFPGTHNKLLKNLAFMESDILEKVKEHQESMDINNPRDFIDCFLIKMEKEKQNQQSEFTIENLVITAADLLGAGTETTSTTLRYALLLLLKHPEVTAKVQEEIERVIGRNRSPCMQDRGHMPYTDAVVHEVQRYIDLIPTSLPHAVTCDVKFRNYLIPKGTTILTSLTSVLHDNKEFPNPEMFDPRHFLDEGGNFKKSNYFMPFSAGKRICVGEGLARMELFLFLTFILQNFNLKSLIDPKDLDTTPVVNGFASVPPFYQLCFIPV
Glucose-6-phosphate 1-dehydrogenase, sequence (P11413 whole entry): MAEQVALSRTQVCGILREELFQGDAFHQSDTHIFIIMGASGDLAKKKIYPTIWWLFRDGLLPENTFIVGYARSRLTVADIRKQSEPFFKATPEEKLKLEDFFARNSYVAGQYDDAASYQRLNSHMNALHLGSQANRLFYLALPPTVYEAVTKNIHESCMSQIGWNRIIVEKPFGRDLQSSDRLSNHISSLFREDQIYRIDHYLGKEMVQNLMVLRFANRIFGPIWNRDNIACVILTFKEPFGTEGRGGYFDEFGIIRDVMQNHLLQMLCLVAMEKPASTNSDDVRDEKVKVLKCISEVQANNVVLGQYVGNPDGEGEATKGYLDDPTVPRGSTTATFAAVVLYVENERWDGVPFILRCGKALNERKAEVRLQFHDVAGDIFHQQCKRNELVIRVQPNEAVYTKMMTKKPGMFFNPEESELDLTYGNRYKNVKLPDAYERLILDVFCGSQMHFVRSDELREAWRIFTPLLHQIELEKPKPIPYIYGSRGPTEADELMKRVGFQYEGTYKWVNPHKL
Cytochrome P450 3A4, sequence (P08684 whole entry): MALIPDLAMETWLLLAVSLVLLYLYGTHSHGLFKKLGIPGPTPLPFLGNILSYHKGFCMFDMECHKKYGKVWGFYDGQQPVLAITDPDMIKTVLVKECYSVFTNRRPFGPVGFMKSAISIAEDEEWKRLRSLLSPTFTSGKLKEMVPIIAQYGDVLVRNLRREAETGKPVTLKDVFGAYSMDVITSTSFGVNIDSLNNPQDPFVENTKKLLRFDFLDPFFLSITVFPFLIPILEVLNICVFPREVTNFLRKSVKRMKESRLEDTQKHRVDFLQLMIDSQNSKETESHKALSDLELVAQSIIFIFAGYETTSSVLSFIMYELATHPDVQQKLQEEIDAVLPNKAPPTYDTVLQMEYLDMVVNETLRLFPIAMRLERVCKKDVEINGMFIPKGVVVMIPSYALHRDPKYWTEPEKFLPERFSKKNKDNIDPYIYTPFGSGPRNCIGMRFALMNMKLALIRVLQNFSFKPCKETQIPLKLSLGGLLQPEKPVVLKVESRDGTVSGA

With `Cc1ccc(-c2nc3ccccc3s2)cc1NC(=S)NC(=O)c1cccc2ccccc12` the EC50 [1] was 12.1 µM (active), the EC50 [2] was 14.1 µM (active) and the AC50 (Escherichia coli) was 36.4 µM (active).

With `O=C(c1cccnc1)C1CCCN(Cc2nc(Cc3ccccc3)no2)C1` (stereo not given) the AC50 (Escherichia coli) was 42 µM (active).

For `CCNc1ccccc1CP(=O)(c1ccccc1)c1ccccc1O` (stereo not given), the AC50 [3] was 10.4 µM (active), the EC50 (Protein RecA) was 1.25 µM (active) and the IC50 [4] was 42.6 µM (inactive).

For `COc1ccc(NC(=O)C(=O)NNC(=O)c2cccs2)c(OC)c1`, the IC50 [5] was > 47.1 µM (inactive), the AC50 (Cytochrome P450 2C19) was 39.8 µM (inconclusive) and the AC50 (Cytochrome P450 2C9) was “inconclusive”. For the same compound, the AC50 (Cytochrome P450 3A4) was 17.8 µM (inconclusive) and the EC50 [6] was > 53 µM (inactive).

In the case of `CNc1nc(-c2cccnc2)nc2ccccc12`, the AC50 (Cytochrome P450 2C19) is reported as 39.8 µM (inconclusive), the AC50 (Cytochrome P450 2C9) is reported as “inconclusive” and the AC50 (Cytochrome P450 2D6) is reported as 39.8 µM (inconclusive).

In the case of `CC(NC(=O)CSc1nc2sc3c(c2c(=O)n1-c1ccccc1)CCCC3)c1ccccc1` (stereo not given), the AC50 (Escherichia coli) is reported as 107 µM (active).

In the case of `COc1ccc(NC(=O)CCSc2cc(C)c3ccccc3n2)cc1`, the AC50 (Cytochrome P450 2C9) is reported as “inconclusive” and the AC50 (Cytochrome P450 2D6) is reported as 31.6 µM (inconclusive).

For `Oc1nc(N2CCCCC2)nc2c1CCCC2`, the AC50 (Escherichia coli) was 24.9 µM (active).

For `O=C(Nc1ccc(Cl)c(C(F)(F)F)c1)NC1CC2CCCC(C1)N2C1CC1` (stereo not given), the AC50 (Escherichia coli) was 25.7 µM (active).
